Measured values: paper PMC4012739, “Targeted inhibition of cell-surface serine protease Hepsin blocks prostate cancer bone metastasis” (Oncotarget, 2014)

Molecular target: T1, Hepsin (Homo sapiens, UniProt P05981)
T1 construct: gene HPN; Extracellular part of human Hepsin (amino acids 45-417), SRCR and trypsin-like serine protease domains
Assay: chromogenic peptide (pyroGlu-Pro-Arg-pNA) protease assay with purified recombinant Hepsin; also pro-HGF cleavage
Format: biochemical

T1 sequence (P05981 45-162): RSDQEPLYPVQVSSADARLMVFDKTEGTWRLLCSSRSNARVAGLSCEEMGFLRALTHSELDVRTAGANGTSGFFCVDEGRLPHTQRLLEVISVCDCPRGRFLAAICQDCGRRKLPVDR
T1 sequence (P05981 163-417): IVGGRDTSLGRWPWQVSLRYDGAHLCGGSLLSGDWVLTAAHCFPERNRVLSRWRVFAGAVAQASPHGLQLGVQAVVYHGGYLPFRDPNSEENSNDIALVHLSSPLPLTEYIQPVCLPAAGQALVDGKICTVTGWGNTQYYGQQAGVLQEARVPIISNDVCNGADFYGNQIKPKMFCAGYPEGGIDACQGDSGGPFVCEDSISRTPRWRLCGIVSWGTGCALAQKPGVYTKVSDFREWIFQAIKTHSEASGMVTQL

Compound `Brc1ccc(C2Nc3cccc4cccc(c34)N2)cc1` [HepIn-13] has an IC50 of 330 nM.
